Reference: ChEMBL document CHEMBL4130359, “Indazole-based ligands for estrogen-related receptor α as potential anti-diabetic agents” (Eur J Med Chem, 2017)
Activity calls are given as the source filed them. The rule behind the calls is not given here.

Legend:
Rattus norvegicus [1] = assay: Toxicity in Zucker rat sub-chronic fa/fa prediabetic model assessed as increase in food consumption at 10 mg/kg, po qd during 10 days study; type: organism-based; details: in vivo, 240 h
[2] = Volume of distribution at steady state in CD-1 mouse at 5 mg/kg, iv by LC-MS analysis; type: ADME, organism-based; details: in vivo, read-out: Vdss
[3] = Tmax in CD-1 mouse at 20 mg/kg administered via oral gavage by LC-MS analysis; type: ADME, organism-based; details: in vivo
[4] = Terminal half life in ob/ob mouse at 18 mg/kg administered via oral gavage by LC-MS analysis; type: ADME, organism-based; details: in vivo, read-out: beta t1/2 (converted)
Rattus norvegicus [5] = assay: Antidiabetic activity in Zucker rat sub-chronic fa/fa prediabetic model assessed as fasting blood insulin level at 1 mg/kg, po qd for 31 days measured on day 29 post dose (reference value: 8.5 +/- 1.4 ug/L); type: functional
Rattus norvegicus [6] = assay: Antidiabetic activity in Zucker rat sub-chronic fa/fa prediabetic model assessed as fasting blood insulin level at 3 mg/kg, po qd for 31 days measured on day 29 post dose (reference value: 8.5 +/- 1.4 ug/L); type: functional
Rattus norvegicus [7] = assay: Antidiabetic activity in Zucker rat sub-chronic fa/fa prediabetic model assessed as blood insulin AUC (0 to 120 min) at 3 mg/kg, po qd for 31 days measured on day 29 post dose (reference value: 1503 +/- 160 ug.min/L); type: functional, organism-based; design: dose 3 mg/kg, time < 2 hr
[8] = Cmax in Zucker rat sub-chronic fa/fa prediabetic model at 50 mg/kg, po qd for 26 days measured on day 26 post last dose; type: ADME, organism-based; design: dose 50 mg/kg, route oral; details: in vivo
Rattus norvegicus [9] = assay: Toxicity in Zucker rat sub-chronic fa/fa prediabetic model assessed as insulin level per gram pancreas at 10 mg/kg, po qd for 31 days measured on day 32 (reference value: 55.2 +/- 5.5 ug); type: organism-based; details: in vivo, 744 h
Rattus norvegicus [10] = assay: Toxicity in Zucker rat sub-chronic fa/fa prediabetic model assessed as serum BUN level at 1 mg/kg, po qd for 31 days measured on day 32 (reference value: 28.3 +/- […]); type: organism-based; details: in vivo, 744 h
[11] = Drug uptake in liver of Zucker rat sub-chronic fa/fa prediabetic model at 12.5 mg/kg, po qd for 11 days; type: ADME, organism-based; details: read-out: Drug uptake
Rattus norvegicus [12] = assay: Antidiabetic activity in Zucker rat sub-chronic fa/fa prediabetic model assessed as increase in serum adiponectin level at 50 mg/kg, po qd for 32 days by ELISA relative to control; type: functional
Rattus norvegicus [13] = type: functional, Zucker
Rattus norvegicus [14] = assay: Antidiabetic activity in po dosed Zucker rat chronic ob/ob model assessed as reduction in blood glucose AUC (0 to 120 min) administered once daily for 31 days measured on day 28 post dose by OGTT; type: functional, organism-based
Rattus norvegicus [15] = assay: Toxicity in […] chronic ob/ob model assessed as change in body weight at 3 mg/kg, po qd for 28 days measured on day 1 to 28 during compound dosing (reference value: 9.9 +/- 1.27 g); type: organism-based; details: in vivo, 672 h
Rattus norvegicus [16] = assay: Toxicity in […] chronic ob/ob model assessed as epididymal white adipose tissue weight at 3 mg/kg, po qd for 31 days measured on day 32 (reference value: 3.92 +/- 0.14 g); type: organism-based; details: in vivo, 744 h
Rattus norvegicus [17] = assay: Toxicity in […] chronic ob/ob model assessed as serum creatinine level at 3 mg/kg, po qd for 31 days measured on day 32 (reference value: 0.55 +/- 0.018 mg/dl); type: organism-based; details: in vivo, 744 h
Rattus norvegicus [18] = assay: Toxicity in […] model assessed as serum creatinine level at 10 mg/kg, po qd for 31 days measured on day 32 (reference value: 0.55 +/- 0.018 mg/dl); type: organism-based; details: in vivo, 744 h
Rattus norvegicus [19] = assay: Increase in ACADM mRNA expression in epididymal white adipose tissue of Zucker rat sub-chronic fa/fa prediabetic model at 10 mg/kg, po qd for 15 days by RT-PCR method; type: functional, organism-based
Rattus norvegicus [20] = assay: Increase in PCK1 mRNA expression in epididymal white adipose tissue of Zucker rat sub-chronic fa/fa prediabetic model at 10 mg/kg, po qd for 15 days by RT-PCR method; type: functional, organism-based
Rattus norvegicus [21] = assay: Effect on NDUFS1 gene expression in epididymal white adipose tissue of Zucker rat sub-chronic fa/fa prediabetic model at 10 mg/kg, po qd for 15 days by microarray analysis relative to control; type: functional
Rattus norvegicus [22] = assay: Effect on PRDX3 gene expression in epididymal white adipose tissue of Zucker rat sub-chronic fa/fa prediabetic model at 10 mg/kg, po qd for 15 days by microarray analysis relative to control; type: functional
Rattus norvegicus [23] = assay: Effect on NDUFA12 gene expression in epididymal white adipose tissue of Zucker rat sub-chronic fa/fa prediabetic model at 10 mg/kg, po qd for 15 days by microarray analysis relative to control; type: functional
Rattus norvegicus [24] = assay: Effect on NDUFS2 gene expression in epididymal white adipose tissue of Zucker rat sub-chronic fa/fa prediabetic model at 10 mg/kg, po qd for 15 days by microarray analysis relative to control; type: functional
Rattus norvegicus [25] = assay: Effect on CPT1A gene expression in epididymal white adipose tissue of Zucker rat sub-chronic fa/fa prediabetic model at 10 mg/kg, po qd for 15 days by microarray analysis relative to control; type: functional
Rattus norvegicus [26] = assay: Effect on ECI2 gene expression in epididymal white adipose tissue of Zucker rat sub-chronic fa/fa prediabetic model at 10 mg/kg, po qd for 15 days by microarray analysis relative to control; type: functional
Rattus norvegicus [27] = assay: Effect on MLYCD gene expression in epididymal white adipose tissue of Zucker rat sub-chronic fa/fa prediabetic model at 10 mg/kg, po qd for 15 days by microarray analysis relative to control; type: functional
Rattus norvegicus [28] = assay: Effect on DBT gene expression in epididymal white adipose tissue of Zucker rat sub-chronic fa/fa prediabetic model at 10 mg/kg, po qd for 15 days by microarray analysis relative to control; type: functional
Rattus norvegicus [29] = assay: Effect on THEM4 gene expression in epididymal white adipose tissue of Zucker rat sub-chronic fa/fa prediabetic model at 10 mg/kg, po qd for 15 days by microarray analysis relative to control; type: functional
Rattus norvegicus [30] = assay: Effect on IL1RL1 gene expression in epididymal white adipose tissue of Zucker rat sub-chronic fa/fa prediabetic model at 10 mg/kg, po qd for 15 days by microarray analysis relative to control; type: functional
Rattus norvegicus [31] = assay: Effect on PCK1 gene expression in epididymal white adipose tissue of Zucker rat sub-chronic fa/fa prediabetic model at 10 mg/kg, po qd for 15 days by microarray analysis relative to control; type: functional
Rattus norvegicus [32] = assay: Effect on MSMO1 gene expression in epididymal white adipose tissue of Zucker rat sub-chronic fa/fa prediabetic model at 10 mg/kg, po qd for 15 days by microarray analysis relative to control; type: functional
Rattus norvegicus [33] = assay: Effect on ACSS1 gene expression in epididymal white adipose tissue of Zucker rat sub-chronic fa/fa prediabetic model at 10 mg/kg, po qd for 15 days by microarray analysis relative to control; type: functional
Rattus norvegicus [34] = assay: Effect on PTGS2 gene expression in epididymal white adipose tissue of Zucker rat sub-chronic fa/fa prediabetic model at 10 mg/kg, po qd for 15 days by microarray analysis relative to control; type: functional

Compound: CN1CC[C@@H](N2C(=O)S/C(=C\c3ccc4c(cnn4Cc4ccc(Cl)cc4C(F)(F)F)c3)C2=O)[C@H](F)C1
- Activity (Rattus norvegicus [1]): Non-Toxic
- Vd [2]: 6.89 L/kg
- Tmax [3]: 1.5 h
- half-life [4]: 8.1 h
- Activity (Rattus norvegicus [5]): 5 µg/L
- Activity (Rattus norvegicus [6]): 4.8 µg/L
- AUC (Rattus norvegicus [7]): 16.7 ng·h/mL
- Cmax [8]: 7660 ng/mL
- Activity (Rattus norvegicus [9]): 80.1 µg
- Activity (Rattus norvegicus [10]): 26.9 mg/dL
- concentration at 264 h [11]: 12400 ng/g
- fold change (FC) (Rattus norvegicus [12]): 3.3
- Activity (Rattus norvegicus [13]): 56958 mg·min/dL
- Activity (Rattus norvegicus [14]): Dose-dependent effect
- Activity (Rattus norvegicus [15]): 6.3 g
- Activity (Rattus norvegicus [16]): 3.44 g
- Activity (Rattus norvegicus [17]): 0.5 mg/dL
- Activity (Rattus norvegicus [18]): 0.44 mg/dL
- Activity (Rattus norvegicus [19]): Active
- Activity (Rattus norvegicus [20]): Active
- fold change (FC) (Rattus norvegicus [21]): 1.561
- fold change (FC) (Rattus norvegicus [22]): 1.559
- fold change (FC) (Rattus norvegicus [23]): 1.252
- fold change (FC) (Rattus norvegicus [24]): 1.224
- fold change (FC) (Rattus norvegicus [25]): -1.277
- fold change (FC) (Rattus norvegicus [26]): 1.453
- fold change (FC) (Rattus norvegicus [27]): 1.608
- fold change (FC) (Rattus norvegicus [28]): -1.217
- fold change (FC) (Rattus norvegicus [29]): 1.465
- fold change (FC) (Rattus norvegicus [30]): -2.752
- fold change (FC) (Rattus norvegicus [31]): 1.391
- fold change (FC) (Rattus norvegicus [32]): -1.271
- fold change (FC) (Rattus norvegicus [33]): -1.893
- fold change (FC) (Rattus norvegicus [34]): -1.389
